# Results: PubChem BioAssay (NCI)
#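 Values below derive from 48-hour exposures of cells grown in 96-well plates, with endpoints linearly interpolated between the two concentrations bracketing the appropriate inhibition level. The concentration for 50% growth inhibition is given as GI50. TGI is the concentration that stops growth completely.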
# How the values were obtained:
# Assay in all cases: inhibition of tumour cell growth, NCI panel, 48 h
# [1] = tested on: PC-3 prostate
# [2] = tested on: SF-268 CNS
# [3] = tested on: NCI-H23 lung
# [4] = tested on: HCT-15 colon
# [5] = tested on: DU-145 prostate
# [6] = tested on: MALME-3M melanoma
# [7] = tested on: SNB-19 CNS
# [8] = tested on: LOX IMVI melanoma
# [9] = tested on: HOP-62 NSCLC
# [10] = tested on: SK-MEL-2 melanoma
# [11] = tested on: MDA-MB-231 breast
# [12] = tested on: SK-MEL-5 melanoma
# [13] = tested on: COLO 205 colon
# [14] = tested on: SR leukemia
# [15] = tested on: OVCAR-8 ovarian
# [16] = tested on: HCT-116 colon
# [17] = tested on: UACC-62 melanoma
# [18] = tested on: ACHN renal
# [19] = tested on: SN12C renal
# [20] = tested on: 786-0 renal
# [21] = tested on: SF-539 CNS
# [22] = tested on: OVCAR-3 ovarian
# [23] = tested on: SW-620 colon
# [24] = tested on: HCC-2998 colon
# [25] = tested on: SK-OV-3 ovarian
# [26] = tested on: NCI-H460 lung
# [27] = tested on: T-47D breast
# [28] = tested on: UO-31 renal
# [29] = tested on: BT-549 breast
compound,measurement,setting,value
COc1ccc(/C(C)=C(\c2ccc(Cl)cc2)c2ccc(OCCN3CCCC3)cc2)cc1F,GI50,[1],3.04 µM
same,TGI,[1],6.71 µM
same,GI50,[2],4.26 µM
same,TGI,[2],8.76 µM
same,GI50,[3],3.55 µM
same,TGI,[3],7.27 µM
same,GI50,[4],0.848 µM
same,TGI,[4],3.38 µM
same,GI50,[5],3.9 µM
same,TGI,[5],8.28 µM
same,GI50,[6],1.23 µM
same,TGI,[6],4.63 µM
same,GI50,[7],3.87 µM
same,TGI,[7],7.41 µM
same,GI50,[8],1.04 µM
same,TGI,[8],3.66 µM
same,GI50,[9],3.92 µM
same,TGI,[9],8.22 µM
same,GI50,[10],4.27 µM
same,TGI,[10],8.4 µM
same,GI50,[11],3.56 µM
same,TGI,[11],6.97 µM
same,GI50,[12],4.1 µM
same,TGI,[12],7.78 µM
same,GI50,[13],2.16 µM
same,TGI,[13],7.49 µM
same,GI50,[14],1.18 µM
same,TGI,[14],6.47 µM
same,GI50,[15],4.22 µM
same,TGI,[15],9.68 µM
same,GI50,[16],2.05 µM
same,TGI,[16],5.64 µM
same,GI50,[17],3.1 µM
same,TGI,[17],6.32 µM
same,GI50,[18],4.06 µM
same,TGI,[18],7.44 µM
same,GI50,[19],3.55 µM
same,TGI,[19],7.12 µM
same,GI50,[20],3.39 µM
same,TGI,[20],7.02 µM
same,GI50,[21],2.74 µM
same,TGI,[21],5.75 µM
same,GI50,[22],3.93 µM
same,TGI,[22],8.38 µM
same,GI50,[23],2.5 µM
same,TGI,[23],5.68 µM
same,GI50,[24],3.44 µM
same,TGI,[24],6.94 µM
same,GI50,[25],4.18 µM
same,TGI,[25],7.86 µM
same,GI50,[26],2.1 µM
same,TGI,[26],5.29 µM
same,GI50,[27],3.3 µM
same,TGI,[27],7.87 µM
same,GI50,[28],2.95 µM
same,TGI,[28],6.26 µM
same,GI50,[29],3.24 µM
